Assay results from ChEMBL document CHEMBL1136121, “Side-chain-to-tail thiolactone peptide inhibitors of the staphylococcal quorum-sensing system” (Bioorg Med Chem Lett, 2003).
Positions of bridges follow the written chain, without caps; N, C: chain ends. Non-standard residues stand in square brackets, D forms with d. Residues, ends and D or L forms follow the SMILES beside them. Abu = CC[C@H](N)C(=O)O

Key:
Staphylococcus aureus [1] = assay: Compound tested to inhibit staphylococcal AgrC-2; assay type: functional, organism-based
Staphylococcus aureus [2] = assay: Compound tested to inhibit staphylococcal AgrC-1; assay type: functional, organism-based

SMILES	IC50 (Staphylococcus aureus [1]) [nM]	IC50 (Staphylococcus aureus [2]) [nM]
CC[C@H](C)[C@@H]1NC(=O)[C@H](Cc2ccccc2)NC(=O)[C@H](C)NC(=O)[C@@H](NC(=O)[C@@H](NC(=O)[C@H](CO)NC(=O)[C@@H](N)Cc2ccc(O)cc2)[C@@H](C)O)CSC(=O)[C@H](CCSC)NC1=O (H-YSTCAFIM; thioester 4-C)	4	21
CC[C@@H]1NC(=O)[C@@H](NC(=O)[C@@H](NC(=O)[C@H](CO)NC(=O)[C@@H](N)Cc2ccc(O)cc2)[C@@H](C)O)CSC(=O)[C@H](CCSC)NC(=O)[C@H]([C@@H](C)CC)NC(=O)[C@H](Cc2ccccc2)NC1=O (H-YSTC[Abu]FIM; thioester 4-C)	2.8	137
CC[C@H](C)[C@@H]1NC(=O)[C@@H](Cc2ccccc2)NC(=O)[C@H](C)NC(=O)[C@H](NC(=O)[C@@H](NC(=O)[C@H](CO)NC(=O)CCCOc2ccc(Cc3ccccc3)cc2)[C@@H](C)O)CSC(=O)[C@H](CCSC)NC1=O	19	295
CC[C@H](C)[C@H]1NC(=O)[C@@H](Cc2ccccc2)NC(=O)[C@@H](C)NC(=O)[C@H](NC(=O)[C@@H](NC(=O)[C@H](CO)NC(=O)CCCOc2ccc(C(=O)c3ccccc3)cc2)[C@@H](C)O)CSC(=O)[C@@H](CCSC)NC1=O	18	303
